# Measured values reported in patent publication US20250163104A1, “MACROCYCLIC IMMUNOMODULATORS” (priority 2021, published 2025).
# Where a SMILES comes first, the peptide text is derived from it. Bridges are numbered along the chain shown (N, C = ends). [ ]: non-standard residue; d: D form. The star is where a group is joined. ξ: configuration not given here. Ala(1-amidino-4-piperidyl) = N=C(N)N1CCC(C[C@H](N)C(=O)O)CC1; Phe(4-(3-Py)) = N[C@@H](Cc1ccc(-c2cccnc2)cc1)C(=O)O; Phe(3-CF3) = N[C@@H](Cc1cccc(C(F)(F)F)c1)C(=O)O; Phe(4-CF3) = N[C@@H](Cc1ccc(C(F)(F)F)cc1)C(=O)O; Ala(morpholin-4-yl) = N[C@@H](CN1CCOCC1)C(=O)O; Phe(4-COOH) = N[C@@H](Cc1ccc(C(=O)O)cc1)C(=O)O; Bip = N[C@@H](Cc1ccc(-c2ccccc2)cc1)C(=O)O; Phe(3-Me) = Cc1cccc(C[C@H](N)C(=O)O)c1; Val(3-OH) = CC(C)(O)[C@H](N)C(=O)O; 4Pal = N[C@@H](Cc1ccncc1)C(=O)O; Cha = N[C@@H](CC1CCCCC1)C(=O)O; Cit = NC(=O)NCCC[C@H](N)C(=O)O; Thr(3ξ) = CC(O)[C@H](N)C(=O)O; Carboxymethyl = O=C(O)C*; Nle = CCCC[C@H](N)C(=O)O; Orn = NCCC[C@H](N)C(=O)O; Dab = NCC[C@H](N)C(=O)O; Dap = NC[C@H](N)C(=O)O; Propargyl = C#CC*
# Biological target: T1, human PD-1 / PD-L1-Ig binding on Jurkat cell line over-expressing human PD-1 (Jurkat-PD-1) (Homo sapiens, UniProt Q15116)
# T1 construct: expressed in transfected cells; host or cells: Jurkat
# T1 sequence (Q15116 25-288): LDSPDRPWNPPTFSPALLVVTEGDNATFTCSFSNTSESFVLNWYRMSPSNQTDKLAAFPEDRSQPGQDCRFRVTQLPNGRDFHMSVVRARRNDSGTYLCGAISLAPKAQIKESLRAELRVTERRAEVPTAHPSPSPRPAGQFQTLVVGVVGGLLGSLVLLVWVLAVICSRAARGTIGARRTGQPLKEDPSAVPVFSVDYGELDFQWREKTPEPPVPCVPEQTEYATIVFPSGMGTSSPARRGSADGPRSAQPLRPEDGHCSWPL
# Assay: Jurkat-PD-1 Cell Binding High-Content Screening Assay (CBA)
# Type: cell-based
# Settings: Jurkat-PD-1 cells, PE-labeled PD-L1-Ig 20 nM final; read-out: Jurkat HPD1_PDL1 IC50
# In short: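 Binding of fluorescent PD-L1-Ig (phycoerythrin linked via the Ig tag, 20 nM final) to PD-1-overexpressing Jurkat cells was imaged after a 2 h, 37° C compound pretreatment and 1 hour ligand incubation.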
row,Structure (SMILES),IC50
1,CC(C)C[C@H]1NC(=O)[C@H](CCCN)NC(=O)[C@H](C(C)C)NC(=O)[C@H](Cc2ccc(-c3ccccc3)cc2)NC(=O)[C@H](C(C)C)NC(=O)[C@H](Cc2c[nH]c3ccccc23)NC(=O)[C@H](CC(=O)O)NC(=O)[C@H](Cc2ccncc2)NC(=O)[C@H](CN)NC(=O)CSC[C@@H](C(=O)N[C@@H](C)C(N)=O)NC(=O)[C@H]([C@@H](C)O)NC(=O)[C@H](C(C)C)NC(=O)[C@H](CC2CCCCC2)NC(=O)[C@H](Cc2cnc[nH]2)NC1=O [Compound 1611],9.6 nM
2,CC(C)C[C@@H]1NC(=O)[C@H](CCN)NC(=O)[C@@H](CC(C)C)NC(=O)[C@H](CCCCN)NC(=O)[C@H](CCCNC(N)=O)NC(=O)[C@H](Cc2ccc(-c3ccccc3)cc2)NC(=O)[C@H](C(C)C)NC(=O)[C@H](Cc2c[nH]c3ccccc23)NC(=O)[C@H](CC(=O)O)NC(=O)[C@H](Cc2ccc(O)cc2)NC(=O)[C@H](CC(N)=O)NC(=O)CSC[C@@H](C(=O)N[C@@H](C)C(N)=O)NC(=O)[C@H](CO)NC(=O)[C@H](C(C)C)NC1=O [Compound 1110] ({CH2CO}-NYDWV[Bip][Cit]K[dL][Dab]LVSCA-NH2; thioether N-14),35.6 nM
3,CC[C@H](C)[C@@H]1NC(=O)[C@H](Cc2ccc(-c3ccccc3)cc2)NC(=O)[C@H](C(C)C)NC(=O)[C@H](Cc2c[nH]c3ccccc23)NC(=O)[C@H](CC(=O)O)NC(=O)[C@H](Cc2ccc(O)cc2)NC(=O)[C@H](CC(N)=O)NC(=O)CSC[C@@H](C(=O)NCC(N)=O)NC(=O)[C@H]([C@@H](C)O)NC(=O)[C@H](C(C)C)NC(=O)[C@H](CC(C)C)NC(=O)[C@H](CCN)NC(=O)[C@@H](CC(C)C)NC(=O)[C@H](CCCN)NC1=O [Compound 1124] ({CH2CO}-NYDWV[Bip]I[Orn][dL][Dab]LVTCG-NH2; thioether N-14),24.3 nM
4,CCCC[C@@H]1NC(=O)[C@H](CCN)NC(=O)[C@@H](CC(C)C)NC(=O)[C@H](CCCN)NC(=O)[C@H](C(C)C)NC(=O)[C@H](Cc2ccc(-c3ccccc3)cc2)NC(=O)[C@H](C(C)C)NC(=O)[C@H](Cc2c[nH]c3ccccc23)NC(=O)[C@H](CC(=O)O)NC(=O)[C@H](Cc2ccc(O)cc2)NC(=O)[C@H](CC(N)=O)NC(=O)CSC[C@@H](C(=O)N[C@@H](C)C(N)=O)NC(=O)[C@H]([C@@H](C)O)NC(=O)[C@H](C(C)C)NC1=O [Compound 1171] ({CH2CO}-NYDWV[Bip]V[Orn][dL][Dab][Nle]VTCA-NH2; thioether N-14),26.4 nM
5,CC[C@H](C)[C@@H]1NC(=O)[C@H](Cc2ccc(-c3ccccc3)cc2)NC(=O)[C@H](C(C)C)NC(=O)[C@H](Cc2cccc(Cl)c2)NC(=O)[C@H](CC(=O)O)NC(=O)[C@H](Cc2ccncc2)NC(=O)[C@H](CN)NC(=O)CSC[C@@H](C(=O)N[C@@H](C)C(N)=O)NC(=O)[C@H]([C@@H](C)O)NC(=O)[C@H](C(C)C)NC(=O)[C@H](CC2CCCCC2)NC(=O)[C@H](CCN)NC(=O)[C@@H](CC(C)C)NC(=O)[C@H](CCCN)NC1=O [Compound 1562],20.2 nM
6,CC(C)C[C@@H]1NC(=O)[C@H](Cc2c[nH]c3ccccc23)NC(=O)[C@H](CC(=O)O)NC(=O)[C@H](Cc2ccc(O)cc2)NC(=O)[C@H](Cc2ccccc2)NC(=O)CSC[C@@H](C(=O)N[C@@H](C)C(N)=O)NC(=O)[C@H](CO)NC(=O)[C@H](C(C)C)NC(=O)[C@H](CC(C)C)NC(=O)[C@H](CC(N)=O)NC(=O)[C@@H](C)NC(=O)[C@H](CCCN)NC(=O)[C@H](C(C)C)NC(=O)[C@H](Cc2ccc(-c3ccccc3)cc2)NC1=O [Compound 1108] ({CH2CO}-FYDWL[Bip]V[Orn][dA]NLVSCA-NH2; thioether N-14),42.5 nM
7,CCCC[C@@H]1NC(=O)[C@H](CCN)NC(=O)[C@@H](CC(C)C)NC(=O)[C@H](CCCN)NC(=O)[C@H](CCCNC(N)=O)NC(=O)[C@H](Cc2ccc(-c3ccccc3)cc2)NC(=O)[C@H](C(C)C)NC(=O)[C@H](Cc2cccc(C)c2)NC(=O)[C@H](CC(=O)O)NC(=O)[C@H](Cc2ccc(OCC(=O)O)cc2)NC(=O)[C@H](Cc2ccncc2)NC(=O)CSC[C@@H](C(=O)N[C@@H](C)C(N)=O)NC(=O)[C@H]([C@@H](C)O)NC(=O)[C@H](C(C)C)NC1=O [Compound 1195] ({CH2CO}-[4Pal]Y(Carboxymethyl)D[Phe(3-Me)]V[Bip][Cit][Orn][dL][Dab][Nle]VTCA-NH2; thioether N-14),13.8 nM

# More lines, now with the values ahead:
row,IC50,Structure (SMILES)
1,17.9 nM,CC(C)C[C@H]1NC(=O)[C@H](CCCN)NC(=O)[C@H](CCC(=O)O)NC(=O)[C@H](Cc2ccc(-c3ccccc3)cc2)NC(=O)[C@H](C(C)C)NC(=O)[C@H](Cc2cccc(C(F)(F)F)c2)NC(=O)[C@H](CC(=O)O)NC(=O)[C@H](Cc2ccc(OCC(=O)O)cc2)NC(=O)[C@H](CN)NC(=O)CSC[C@@H](C(=O)N[C@@H](C)C(N)=O)NC(=O)[C@H]([C@@H](C)O)NC(=O)[C@H](C(C)C)NC(=O)[C@H](CC2CCCCC2)NC(=O)[C@H](CCN)NC1=O [Compound 1458]
2,7.6 nM,CCCC[C@H]1NC(=O)[C@H](CCCN)NC(=O)[C@H](CCC(=O)O)NC(=O)[C@H](Cc2ccc(-c3ccccc3)cc2)NC(=O)[C@H](C(C)C)NC(=O)[C@H](Cc2c[nH]c3ccccc23)NC(=O)[C@H](CC(=O)O)NC(=O)[C@H](Cc2ccc(C(=O)O)cc2)NC(=O)[C@H](Cc2ccncc2)NC(=O)CSC[C@@H](C(=O)N[C@@H](C)C(N)=O)NC(=O)[C@H]([C@@H](C)O)NC(=O)[C@H](C(C)C)NC(=O)[C@H](CC2CCCCC2)NC(=O)[C@H](CCN)NC1=O [Compound 1450]
3,15.9 nM,CC(C)C[C@H]1NC(=O)[C@H](CCCN)NC(=O)[C@H](CCCNC(N)=O)NC(=O)[C@H](Cc2ccc(-c3ccccc3)cc2)NC(=O)[C@H](C(C)C)NC(=O)[C@H](Cc2c[nH]c3ccccc23)NC(=O)[C@H](CC(=O)O)NC(=O)[C@H](Cc2ccc(OCC(=O)O)cc2)NC(=O)[C@H](CC2CCN(C(=N)N)CC2)NC(=O)CSC[C@@H](C(=O)N[C@@H](C)C(N)=O)NC(=O)[C@H](CO)NC(=O)[C@H](C(C)C)NC(=O)[C@H](CC2CCCCC2)NC(=O)[C@H](CN)NC1=O [Compound 2504] ({CH2CO}-[Ala(1-amidino-4-piperidyl)]Y(Carboxymethyl)DWV[Bip][Cit][Orn][dL][Dap][Cha]VSCA-NH2; thioether N-14)
4,101 nM,Cc1cccc(C[C@@H]2NC(=O)[C@H](CC(N)=O)NC(=O)[C@H](Cc3ccc(C(=O)O)cc3)NC(=O)[C@H](CCN)NC(=O)CSC[C@@H](C(=O)N[C@@H](CCN)C(N)=O)NC(=O)[C@H](CO)NC(=O)[C@H](C(C)(C)O)NC(=O)[C@H](CC3CCCCC3)NC(=O)[C@H](CCN)NC(=O)[C@@H](CC(C)C)NC(=O)[C@H](CCCN)NC(=O)[C@H](Cc3ccc(C(=O)O)cc3)NC(=O)[C@H](Cc3ccc(-c4ccccc4)cc3)NC(=O)[C@H](Cc3ccc(C(=O)O)cc3)NC2=O)c1 [Example 2720] ({CH2CO}-[Dab][Phe(4-COOH)]N[Phe(3-Me)][Phe(4-COOH)][Bip][Phe(4-COOH)][Orn][dL][Dab][Cha][Val(3-OH)]SC[Dab]-NH2; thioether N-14)
5,1.5 nM,CC(C)C[C@H]1NC(=O)[C@H](CCCN)NC(=O)[C@H](Cc2ccc(C(=O)O)cc2)NC(=O)[C@H](Cc2ccc(-c3ccccc3)cc2)NC(=O)[C@H](Cc2ccc(-c3cccnc3)cc2)NC(=O)[C@H](Cc2cccc(C(F)(F)F)c2)NC(=O)[C@H](CC(=O)O)NC(=O)[C@H](Cc2ccc(C(=O)O)cc2)NC(=O)[C@H](CN2CCOCC2)NC(=O)CSC[C@@H](C(=O)N[C@@H](CCN)C(N)=O)NC(=O)[C@H](CCC(=O)O)NC(=O)[C@H](C(C)C)NC(=O)[C@H](CC2CCCCC2)NC(=O)[C@H](CCN)NC1=O [Example 2731] ({CH2CO}-[Ala(morpholin-4-yl)][Phe(4-COOH)]D[Phe(3-CF3)][Phe(4-(3-Py))][Bip][Phe(4-COOH)][Orn][dL][Dab][Cha]VEC[Dab]-NH2; thioether N-14)
6,3.6 nM,C#CCOc1ccc(C[C@@H]2NC(=O)CSC[C@@H](C(=O)N[C@@H](CCN)C(N)=O)NC(=O)[C@H](CCC(=O)O)NC(=O)[C@H](C(C)C)NC(=O)[C@H](CC3CCCCC3)NC(=O)[C@H](CCN)NC(=O)[C@@H](CC(C)C)NC(=O)[C@H](CCCN)NC(=O)[C@H](Cc3ccc(OCC(=O)O)cc3)NC(=O)[C@H](Cc3ccc(-c4ccccc4)cc3)NC(=O)[C@H](Cc3ccc(OCC(=O)O)cc3)NC(=O)[C@H](Cc3cccc(C)c3)NC(=O)[C@H](CC(=O)O)NC(=O)[C@H](Cc3ccc(OCC(=O)O)cc3)NC2=O)cc1 [Compound 1817] ({CH2CO}-Y(Propargyl)Y(Carboxymethyl)D[Phe(3-Me)]Y(Carboxymethyl)[Bip]Y(Carboxymethyl)[Orn][dL][Dab][Cha]VEC[Dab]-NH2; thioether N-14)
7,13.6 nM,Cc1cccc(C[C@@H]2NC(=O)[C@H](CC(=O)O)NC(=O)[C@H](Cc3ccc(OCC(=O)O)cc3)NC(=O)[C@H](CCN)NC(=O)CSC[C@@H](C(=O)N[C@@H](CCCN)C(N)=O)NC(=O)[C@H](C(C)O)NC(=O)[C@H](C(C)C)NC(=O)[C@H](CC3CCCCC3)NC(=O)[C@H](CCN)NC(=O)[C@@H](CC(C)C)NC(=O)[C@H](CCCN)NC(=O)[C@H](CCCNC(N)=O)NC(=O)[C@H](Cc3ccc(-c4ccccc4)cc3)NC(=O)[C@H](C(C)C)NC2=O)c1 (stereo partly drawn) [Compound 2639] ({CH2CO}-[Dab]Y(Carboxymethyl)D[Phe(3-Me)]V[Bip][Cit][Orn][dL][Dab][Cha]V[Thr(3ξ)]C[Orn]-NH2; thioether N-14)
8,44.7 nM,CC(C)C[C@H]1NC(=O)[C@H](CCCN)NC(=O)[C@H](CCCNC(N)=O)NC(=O)[C@H](Cc2ccc(-c3ccccc3)cc2)NC(=O)[C@H](C(C)C)NC(=O)[C@H](Cc2c[nH]c3ccccc23)NC(=O)[C@H](CC(=O)O)NC(=O)[C@H](Cc2ccc(C(F)(F)F)cc2)NC(=O)[C@H](CN)NC(=O)CSC[C@@H](C(=O)N[C@@H](C)C(N)=O)NC(=O)[C@H]([C@@H](C)O)NC(=O)[C@H](C(C)C)NC(=O)[C@H](CC2CCCCC2)NC(=O)[C@H](CCN)NC1=O [Compound 2107] ({CH2CO}-[Dap][Phe(4-CF3)]DWV[Bip][Cit][Orn][dL][Dab][Cha]VTCA-NH2; thioether N-14)
